{"source": "patent US20100048638A1", "about": "“HEPARAN SULFATE INHIBITORS” (ZACHARON PHARMACEUTICALS, INC., priority 2008, published 2010)", "key": {"[1]": {"tested_on": "FGF2 binding to heparan sulfate in human cervical cancer cells (HeLa)", "experiment": "FGF2 binding to heparan sulfate in HeLa cells, flow cytometry", "format": "cell-based", "conditions": "various concentrations", "procedure": "(§1) FIG. 2 illustrates the impact of 4-(4-(3,4-dimethoxyphenyl)-6-phenylpyrimidin-2-yl)morpholine on the ability of FGF2 to bind to heparan sulfate in human cervical cancer cells (HeLa). FGF2 binding to heparan sulfate is measured by culturing HeLa cells in the presence of the heparan sulfate modulator. After 2 days of growth, the cells are released with 5 mM EDTA and probed with biotinylated FGF2 for 30 minutes on ice. After washing unbound FGF2, bound FGF2 is detected with streptavidin-Cy5-PE. After washing to remove unbound streptavidin-Cy5-PE, the bound probe is quantified using a flow cytometry. The heparan sulfate inhibitors are tested on at least three independent occasions, in duplicate over a dose range. Heparan sulfate specificity is determined by probing with lectins to other glycan classes (chondroitin sulfate, O-linked, N-linked, etc.). FIG. 3 illustrates the impact of 4-(4-(3,4-dimethoxyphenyl)-6-phenylpyrimidin-2-yl)morpholine on the sulfation of heparan sulfate found in human cervical cancer cells (HeLa). The sulfation of heparan sulfate is determined by culturing HeLa cells in the presence of the heparan sulfate modulator. Heparan sulfate is isolated from treated and untreated cells by lysing the cells in 0.1 N NaOH. After neutralization, the cell lysate is treated with pronase to degrade the core proteins. Subsequently, the heparan sulfate is purified on diethylaminoethyl (DEAE) resin, eluted with 1.0 M NaCl, desalted using gel filtration and dried. To characterize the composition of heparan sulfate produced in the presence of the heparan sulfate modulator, the isolate heparan sulfate is digested to disaccharides using a blend of heparin lyase I, II, and III (from flavobacterium heparinum). The disaccharides are quantified by HPLC using a propac PA1 column using known heparan sulfate disaccharides as standards. Specifically, FIG. 3A illustrates the impact of 4-(4-(3,4-dimethoxyphenyl)-6-phenylpyrimidin-2-yl)morpholine on the amount of specific disaccharide units; and FIG. 3B illustrates the impact of 4-(4-(3,4-dimethoxyphenyl)-6-phenylpyrimidin-2-yl)morpholine on the amount of specific glucosamine and uronic acid modifications.\nas §1, with “FIG. 4” for “FIG. 2”, “of 7-((3-chlorophenyl)(pyridin-2-ylamino)methyl)-2-methylquinolin-8-ol” for “of 4-(4-(3,4-dimethoxyphenyl)-6-phenylpyrimidin-2-yl)morpholine”, “FIG. 5” for “FIG. 3”, “heparinum). […]” for “heparinum). The disaccharides are quantified by HPLC using a propac PA1 column using known heparan sulfate disaccharides as standards. Specifically, FIG. 3A illustrates the impact of 4-(4-(3,4-dimethoxyphenyl)-6-phenylpyrimidin-2-yl)morpholine on the amount of specific disaccharide units; and FIG. 3B illustrates the impact of 4-(4-(3,4-dimethoxyphenyl)-6-phenylpyrimidin-2-yl)morpholine on the amount of specific glucosamine and uronic acid modifications.”"}, "[2]": {"tested_on": "cultured primary human fibroblast from MPS patients", "experiment": "In vitro MPS model: accumulation of GAG fragments in fibroblasts", "format": "cell-based", "from_the_text": "Substrate reduction therapy (SRT) is validated for MPS. The non-specific inhibitor of sulfation, sodium chlorate is used herein for such validation. […] In certain instances, in vitro MPS models used herein are based on measuring the accumulation of GAG fragments in cultured primary human fibroblast from MPS patients. In some instances, the GAGs that accumulate in MPS patients are much smaller than normal tissue GAGs and they lack a core protein on their reducing termini. Based on these features the in vitro MPS model used in certain instances herein is based on a method of tagging reducing ends of the GAGs with a detectable label and analyzing (i.e., detecting and/or measuring) the detectable labels using a device suitable for detecting the label (e.g., an HPLC with a fluorimeter)."}, "[3]": {"tested_on": "6-O sulfation of heparan sulfate", "experiment": "Change in the structure (sulfation) of heparan sulfate in cultured human cells", "format": "cell-based", "conditions": "FIG. 21A", "procedure": "FIG. 2 illustrates the impact of 4-(4-(3,4-dimethoxyphenyl)-6-phenylpyrimidin-2-yl)morpholine on the ability of FGF2 to bind to heparan sulfate in human cervical cancer cells (HeLa). FGF2 binding to heparan sulfate is measured by culturing HeLa cells in the presence of the heparan sulfate modulator. After 2 days of growth, the cells are released with 5 mM EDTA and probed with biotinylated FGF2 for 30 minutes on ice. After washing unbound FGF2, bound FGF2 is detected with streptavidin-Cy5-PE. After washing to remove unbound streptavidin-Cy5-PE, the bound probe is quantified using a flow cytometry. The heparan sulfate inhibitors are tested on at least three independent occasions, in duplicate over a dose range. Heparan sulfate specificity is determined by probing with lectins to other glycan classes (chondroitin sulfate, O-linked, N-linked, etc.). FIG. 3 illustrates the impact of 4-(4-(3,4-dimethoxyphenyl)-6-phenylpyrimidin-2-yl)morpholine on the sulfation of heparan sulfate found in human cervical cancer cells (HeLa). The sulfation of heparan sulfate is determined by culturing HeLa cells in the presence of the heparan sulfate modulator. […] The disaccharides are quantified by HPLC using a propac PA1 column using known heparan sulfate disaccharides as standards. […]\n(§2) After sacrifice, the liver and tumor were analyzed for changes in the structure of heparan sulfate."}, "[4]": {"tested_on": "SKOV3 cells", "experiment": "Human ovarian cancer model, SKOV3 subcutaneous tumors in female nude mice", "format": "in vivo", "conditions": "1, 3 and 10 mg/kg/day, two IP injections daily", "procedure": "Compound 9 was tested for anti-cancer activity in a Human ovarian cancer model. Briefly, 5 million SKOV3 cells were injected in 100 ul mixed with matrigel subcutaneously into female nude mice. The tumors were allowed to grow to 0.1 cm^3 then the mice were randomized into four groups (Vehicle, 1, 3, and 10 mg/kg/day). Each group received the indicated daily dose divided into two IP injections. Vehicle alone received the formulation only."}, "[5]": {"tested_on": "heparan sulfate", "experiment": "Heparan sulfate structure in liver and tumor after sacrifice, SKOV3 model", "format": "in vivo, mice", "procedure": "as §2"}, "[6]": {"tested_on": "synthesis of PAPs / heparan sulfate sulfation", "conditions": "cited from earlier work"}, "[7]": {"conditions": "in vitro model of MPS IIIA, human MPS IIIA fibroblasts"}}, "data": [{"smiles": "COc1ccc(-c2cc(-c3ccccc3)nc(N3CCOCC3)n2)cc1OC", "note": "[compound 1, 4-(4-(3,4-dimethoxyphenyl)-6-phenylpyrimidin-2-yl)morpholine]", "values": [{"measurement": "inhibition of FGF-2 binding to heparan sulfate", "setting": "[1]", "result": "inhibition of FGF-2 binding"}, {"measurement": "inhibition of heparan sulfate biosynthesis", "setting": "[2]; human MPS IIIA fibroblasts", "result": "inhibition of heparan sulfate biosynthesis"}, {"measurement": "GAG accumulation", "setting": "[2]; [7]", "result": "reduce GAG accumulation"}]}, {"smiles": "Cc1ccc2ccc(C(Nc3ccccn3)c3cccc(Cl)c3)c(O)c2n1", "note": "(stereo not drawn) [compound 2, 7-((3-chlorophenyl)(pyridin-2-ylamino)methyl)-2-methylquinolin-8-ol]", "values": [{"measurement": "inhibition of FGF-2 binding to heparan sulfate", "setting": "[1]", "result": "inhibition of FGF-2 binding"}]}, {"smiles": "Cc1ccc2ccc(C(Nc3ccccn3)c3ccccc3F)c(O)c2n1", "note": "(stereo not drawn) [compound 3, 7-((2-fluorophenyl)(pyridin-2-ylamino)methyl)-2-methylquinolin-8-ol]", "values": [{"measurement": "inhibition of FGF-2 binding to heparan sulfate", "setting": "[1]", "result": "inhibition of FGF-2 binding"}]}, {"smiles": "CC(C)C(=O)NC(c1cccs1)c1cc([N+](=O)[O-])c2cccnc2c1O", "note": "(stereo not drawn) [compound 5, 7-((thiophen-2-yl)(isobutoylamino)methyl)-5-nitroquinolin-8-ol]", "values": [{"measurement": "inhibition of FGF-2 binding to heparan sulfate", "setting": "[1]", "result": "inhibition of FGF-2 binding"}, {"measurement": "inhibition of heparan sulfate biosynthesis", "setting": "[2]; human MPS IIIA fibroblasts", "result": "inhibition of heparan sulfate biosynthesis"}, {"measurement": "GAG accumulation", "setting": "[2]; [7]", "result": "reduce GAG accumulation"}]}, {"smiles": "CCc1cc(=O)oc2cc(Oc3ccc([N+](=O)[O-])cc3C(F)(F)F)ccc12", "note": "[compound 6, 4-ethyl-7-(4-nitro-2-(trifluoromethyl)phenoxy)-2H-chromen-2-one]", "values": [{"measurement": "inhibition of FGF-2 binding to heparan sulfate", "setting": "[1]", "result": "inhibition of FGF-2 binding"}]}, {"smiles": "CC(C)(C)C1CCc2c(sc3nc(C(F)(F)F)[nH]c(=O)c23)C1", "note": "(stereo not drawn) [compound 7]", "values": [{"measurement": "inhibition of FGF-2 binding to heparan sulfate", "setting": "[1]", "result": "inhibition of FGF-2 binding"}, {"measurement": "inhibition of heparan sulfate biosynthesis", "setting": "[2]; human MPS IIIA fibroblasts", "result": "inhibition of heparan sulfate biosynthesis"}, {"measurement": "GAG accumulation", "setting": "[2]; [7]", "result": "reduce GAG accumulation"}]}, {"smiles": "O=C(NC(=S)N(Cc1ccccc1)Cc1ccccc1)c1cccc(Cl)c1", "note": "[compound 8]", "values": [{"measurement": "inhibition of FGF-2 binding to heparan sulfate", "setting": "[1]", "result": "inhibition of FGF-2 binding"}, {"measurement": "inhibition of heparan sulfate biosynthesis", "setting": "[2]; human MPS IIIA fibroblasts", "result": "inhibition of heparan sulfate biosynthesis"}, {"measurement": "GAG accumulation", "setting": "[2]; [7]", "result": "reduce GAG accumulation"}]}, {"smiles": "C[S+]([O-])c1ccc(-c2nc(-c3ccc(F)cc3)c(-c3ccncc3)[nH]2)cc1", "note": "(stereo not drawn) [compound 9]", "values": [{"measurement": "6-O sulfation of heparan sulfate", "setting": "[3]", "result": "inhibits the 6-O sulfation of heparan sulfate"}, {"measurement": "tumor growth", "setting": "[4]", "result": "blocked tumor growth at all doses tested"}, {"measurement": "heparan sulfate biosynthesis in liver", "setting": "[5]; liver of treated animals, after sacrifice, 1, 3 and 10 mg/kg/day IP", "result": "altered in the liver of treated animals in a dose dependent manner"}, {"measurement": "changes in the structure of heparan sulfate in tumor", "setting": "[5]; small tumor remaining in treated animals, after sacrifice", "result": "No changes were detected"}]}, {"smiles": "[Na+].[O-][Cl+2]([O-])[O-]", "note": "[sodium chlorate, reference compound]", "values": [{"measurement": "GAG accumulation", "setting": "[2]; in vitro model of MPS I", "result": "reduction of GAG accumulation"}, {"measurement": "GAG accumulation", "setting": "[2]; in vitro model of MPS II", "result": "reduction of GAG accumulation"}, {"measurement": "GAG accumulation", "setting": "[2]; [7]", "result": "reduction of GAG accumulation"}, {"measurement": "synthesis of PAPs (sulfate donor)", "setting": "[6]; 30-60 mM", "result": "inhibits the synthesis of PAPs"}, {"measurement": "sulfation of heparan sulfate produced by cells", "setting": "[6]; cells grown in the presence of the substance", "result": "reduced sulfation"}]}]}
